What all share (format): ADME
For assay [1], the target named is T1, Albumin (Homo sapiens, UniProt P02768). Kind of assay: Binding affinity to human serum albumin by PAMPA method.
For assay [2], the target named is T1, Albumin. In words: Binding affinity to 300 uM human serum albumin at 10 uM by PAMPA method.
Assay [3] deals with T1, Albumin. Kind of assay: Binding affinity to 600 uM human serum albumin at 10 uM by PAMPA method. In general terms: In PAMPA a lipid-coated filter parts donor from acceptor wells.
The target in assay [4] is T1, Albumin. Kind of assay: Binding affinity to 100 uM human serum albumin at 10 uM by PAMPA method.
Assay [5] concerns the target T1, Albumin. In words: Binding affinity to 50 uM human serum albumin at 10 uM by PAMPA method.
In assay [6] the target is T1, Albumin. Kind of assay: Binding affinity to 100 uM human serum albumin at 50 uM by PAMPA method.

T1 sequence (P02768 whole entry): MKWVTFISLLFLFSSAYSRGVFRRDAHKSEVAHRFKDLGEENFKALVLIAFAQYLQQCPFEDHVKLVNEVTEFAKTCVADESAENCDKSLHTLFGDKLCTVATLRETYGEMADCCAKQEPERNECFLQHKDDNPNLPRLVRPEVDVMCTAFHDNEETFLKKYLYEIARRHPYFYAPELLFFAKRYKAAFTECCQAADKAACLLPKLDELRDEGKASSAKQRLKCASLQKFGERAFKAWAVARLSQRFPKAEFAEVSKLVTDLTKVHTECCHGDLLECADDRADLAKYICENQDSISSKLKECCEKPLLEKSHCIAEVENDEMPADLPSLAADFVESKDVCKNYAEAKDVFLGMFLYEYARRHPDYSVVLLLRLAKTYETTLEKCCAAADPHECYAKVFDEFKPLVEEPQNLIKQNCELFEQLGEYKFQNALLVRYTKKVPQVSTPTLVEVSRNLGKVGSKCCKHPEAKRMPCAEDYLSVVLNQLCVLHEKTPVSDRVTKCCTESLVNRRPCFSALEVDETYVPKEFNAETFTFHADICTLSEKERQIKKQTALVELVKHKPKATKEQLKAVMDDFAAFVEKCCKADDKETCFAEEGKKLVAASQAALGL

Turning to `CNCCCN1c2ccccc2CCc2ccccc21` [DESIPRAMINE], the Kd at Albumin [1] was 851 µM.

On to `CC(C)NCC(O)COc1cccc2ccccc12` (configuration not stated) [PROPRANOLOL], for which the Kd at Albumin [2] was 603 µM; at Albumin [3] it was 631 µM; on Albumin [4], 661 µM; on Albumin [5] it was 355 µM; at Albumin [1], 437 µM; on Albumin [6], 437 µM.

The term Kd denotes the equilibrium constant for the complex coming apart. A higher Kd goes with weaker binding.

(Values after ChEMBL document CHEMBL1144698, “New approach to measure protein binding based on a parallel artificial membrane assay and human serum albumin” (J Med Chem, 2008).)
